Counter-ions that a name gives are not always drawn.
Assays:
[1] = test system: Acanthamoeba polyphaga strain Ros cysts; assay: Acanthamoeba contact lens disinfectant challenge test assay; type: cell-based; details: 25 ppm
Protocol: Acanthamoeba polyphaga strain Ros were used in this study. Trophozoites were maintained at 30° C. in an axenic broth medium composed of 20.0 g Biosate™ (Becton Dickinson, United Kingdom), 5.0 g glucose, 0.3 g KH2PO4, 10 μg vitamin B12 and 15.0 mg L-methionine per litre of deionized water. The pH was adjusted to 6.5-6.6 with 1 M NaOH before autoclaving at 121° C. for 12 minutes. Penicillin and streptomycin were added to a final concentration of 150 μ/ml before use.
Cysts were prepared from trophozoite cultures using the axenic medium supplemented with 50 mM MgCl2. The encystment medium was inoculated with approximately 2×10^5 /ml trophoxoites for culture at 30° C. in a shaking incubator (100 rpm) for 7 days. Cells were enumerated using haemocytometer counting.
The challenge test assay protocol, as described by R. Hughes and S. Kilvington, Comparison of Hydrogen Peroxide Contact Lens Disinfection Systems and Solutions Against Acanthamoeba Polyphaga, Antimicrob. Agents Chemother. 45: 2038-2043, (2001), is set forth in detail below. The number of surviving organisms was calculated as described by L. J. Reed and H. Muench, A Simple Method for Estimating Fifty Percent Endpoints, Am. J. Hyg., 27: 493-497, (1938). Statistical analysis of the data was by One Way Analysis Of Variance (ANOVA).
1. Fifty ml polypropylene centrifuge tubes were aged overnight with 15 ml of disinfectant solution, i.e., ReNue™ 02 (Bausch & Lomb, Rochester, N.Y.). The tubes were then drained, the disinfectant solution discarded, and refilled with 10 ml of fresh disinfectant solution for testing.
2. To a flat-bottomed, 96 well microtitre plate having 8 columns labelled “A” through “H”, 180 μl of neutralizer, i.e., 0.1 percent Tween™ 80 (Baker, Inc., Phillipsburg, N.J.) in one-quarter strength Ringer's solution for biguanide based disinfectants, was added to the outer wells of columns A and H. 180 μl of one-quarter strength Ringer's solution was then added to the remaining inner wells of columns B through G.
3. Amoebae were adjusted to 5×10^6 /ml in one-quarter strength Ringer's solution and 100 μl (5×10^5) was added to 10 ml of disinfectant (5×10^4 /ml) or saline control.
4. At time intervals of 0, 1, 2, 3, 4, 6 and 24 hours:
i. vortexed tubes 5 seconds;
ii. in quadruplet, removed 20 μl (1000 cells) and added to neutralizer wells for the given time-point (i.e., column A, rows 9-12) and made serial 10-fold dilutions across the microtitre plate (i.e., to column D, rows 9-12); and
iii. repeated for each time point.
5. One drop of live E. coli from 3 ml pastette (25 μl of approximately 5×10^7 bacteria/ml) was then added to each well.
6. The plate was then incubated at 32° C. for up to 7 days.
7. The plate was inspected daily for 7 days for the presence of amoebal growth, either trophozoite replication or excystment and trophozoite replication, in the wells.
8. The number of surviving organisms was then estimated at each time interval by Reed and Muench computation and set forth below in Table 3.

melting point [°C]	Structure (SMILES)	Amoebae Log Kill, Cysts ([1]; 1 Hr.) [Log]	Amoebae Log Kill, Cysts ([1]; 4 Hr.) [Log]
116 to 118	CCCCCCCCCCCCCCCCCC(=O)OCCC[N+](C)(C)C (as salt: iodide) [Compound 7, N-stearoyloxypropyl-N,N,N-trimethylammonium iodide]		
90 to 91	CCCCCCCCCCCCCC(=O)OCCC[N+](C)(C)CCCCC (as salt: iodide) [Compound 11, N-myristoyloxypropyl-N,N-dimethyl-N-pentylammonium iodide]		
92 to 94	CCCCCCCCCCCCCC(=O)OCCOCC[N+](C)(C)C (as salt: iodide) [Compound 15, N-myristoyloxyethoxyethyl-N,N,N-trimethylammonium iodide]		
118 to 120	CCCCCCCCCCCCCC(=O)OCCC[N+](C)(C)C (as salt: iodide) [Compound 5, N-myristoyloxypropyl-N,N,N-trimethylammonium iodide]		
	CCCCCCCCCCCCCC(=O)OCCC[N+](C)(C)CCCCC [Compound 11, N-myristoyloxypropyl-N,N-dimethyl-N-pentylammonium iodide]	3.69	3.69
	CCCCCCCCCCCCCC(=O)OCCC[N+](C)(C)CC [Compound 8, N-myristoyloxypropyl-N,N-dimethyl-N-ethylammonium iodide]	1	4
121 to 124	CCCCCCCCCCCC(=O)OCCC[N+](C)(C)C (as salt: iodide) [Compound 4, N-lauroyloxypropyl-N,N,N-trimethylammonium iodide]		
	CCCCCCCCCCCCCC(=O)OCCC[N+](C)(C)CCC [Compound 9, N-myristoyloxypropyl-N,N-dimethyl-N-propylammonium iodide]	3.69	4
	CCCCCCCCCCCCCCCC(=O)OCCC[N+](C)(C)C [Compound 6, N-palmitoyloxypropyl-N,N,N-trimethylammonium iodide]	0.46	3.54
60 to 62	CCCCCCCCCCCCCC(=O)OCCC[N+](C)(C)CC (as salt: iodide) [Compound 8, N-myristoyloxypropyl-N,N-dimethyl-N-ethylammonium iodide]		
	CCCCCCCCCCCCCC(=O)OCCC[N+](C)(C)CCCCCC [Compound 12, N-myristoyloxypropyl-N,N-dimethyl-N-hexylammonium iodide]	3.54	3.54
